From US12187756B2 (priority 2018, dated 2025)

Settings: buffer

With `CC(=O)NC1[C@H](O[C@@H]2C(CO)O[C@H](O[C@H]3C(CO)O[C@@H](O[C@@H]4C(O)[C@@H](COP(=O)(O)OCCCCCN)OC(CO)[C@H]4O)C(NC(C)=O)[C@H]3O[C@@H]3OC(CO)[C@@H](O)[C@H](O)C3O)[C@@H](O)C2O)OC(CO)[C@H](O)[C@@H]1O[C@@H]1OC(CO)[C@@H](O)[C@H](O)C1O` (stereo partly shown) [compound 33] as the compound, how does the “compound remaining intact (HPLC)” value read?
The value was 50%.
